According to patent US5030634A (priority 1990, dated 1991):

Key:
cancer patients = conditions: anticancer clinical trials, Cancer Treatment Reports 71:95, 1987; cited from earlier work
[1] = tested on: rheumatoid arthritis patients; assay: Double-blind clinical trial of 10-deazaaminopterin versus methotrexate in rheumatoid arthritis: toxicity evaluation; format: in vivo, human; conditions: for Toxicity: Dizziness / Toxicity: Gastrointestinal / Toxicity: Leukopenia / Toxicity: Rash: n = 7 per arm, 18 week trial
Procedure: The double-blind clinical trail of 10-deazaaminopterin versus methotrexate in rheumatoid arthritis was conducted at Universidad Peruana Cayetano Heredia, Lima, Peru. In order to detect 30% differences in either direction for both -efficacy and toxicity a sample size of 20 was used. The trial was conducted according to the following protocol.
The null hypotheses to be investigated included the following
Randomization was performed before the study began; an equal number of patients in each arm of the protocol was secured. Codes were made available to the investigator in sealed envelopes at the beginning of the trial; they were allowed to be opened by the investigator, only if felt to be mandatory for patient management. Patients received a three week supply of either 10-deazaaminopterin or methotrexate. […] Initially the patients received three capsules/week (or 7.5 mg). The capsules were taken at 12 hour intervals over a 24 hour period (8 a.m.-8 p.m. -8 a.m. the following day).
A data base which included a complete history, physical and laboratory exams was completed (Visit 0 or eligibility visit). […] If the patient was felt to be eligible, he/she was entered into the trial the following week (Visit 1) at which time disease activity was assessed and a functional test completed. Patients returned to the clinic every three weeks at which time joint counts were performed, side effects monitored and laboratory studies obtained. An assessment of response was done at week nine (Visit 3). At week 18 (Visit 6) or before (if the patient decides to be removed from the trial) the patient would have a complete exit evaluation, similar to the one performed on visit 1.
Joint counts for pain/tenderness in 60 diarthrodial joints and for swelling in 58 diarthrodial joints Laboratory tests included: CBC, with platelets and differential, Creatinine, SGOT and Alkaline phosphatase. […] 5 ml of sera were secured at entry and at study completion and stored at -20° C. for further studies.
Adverse effects were determined by interviewing the patient; each new symptom developing since the previous visit were recorded as to the date or onset, date of cessation, and whether it was felt to be related or unrelated to the study drug(s).
Minor itching and skin rashes could be handled with antihistaminics or topical steroids; a drop in the WBC ([…]) or in the platelets (<100,000/mm^3), or an increase in the liver enzymes ×2 normal), or an increase in the baseline creatinine (×2 normal) would prompt holding the drug for one week; if the values improved, patients may be restarted on the drug; if no improvement occurs in 3 weeks, the patient should be withdrawn. […] If no improvement occurs in 3 weeks, the patient should be withdrawn from the trial. If a patient develops a serious intercurrent infectious process, or requires elective or emergency surgery during the study period, the patient should be withdrawn from the trial.

[2] = mammalian tissues; cited from earlier work
dihydrofolate reductase = conditions: 10-deazaaminopterin compared with methotrexate; cited from earlier work
[3] = tested on: patients receiving methotrexate; conditions: cited from earlier work

Compound: Nc1nc(N)c2nc(CCc3ccc(C(=O)NC(CCC(=O)O)C(=O)O)cc3)cnc2n1 (stereo not shown) [10-deazaaminopterin]
- Bone marrow depression (cancer patients): minimal
- Nausea and vomiting (cancer patients): mild
- Toxicity in humans versus methotrexate (in words) ([1]; clinical trials (not further specified), compared with methotrexate): remarkably less toxic to humans
- Frequency of toxicity (in words) ([1]; human, in vivo): low frequency of toxicity
- Toxicity: Dizziness [1]: 0
- Toxicity: Gastrointestinal [1]: 2
- Toxicity: Leukopenia [1]: 0
- Toxicity: Rash [1]: 1
- Metabolism to poly-gamma-glutamates [2]: also metabolized to its poly-gamma-glutamates in mammalian tissues
- Inhibition of dihydrofolate reductase (in words) (dihydrofolate reductase): inhibit this enzyme to approximately the same magnitude

Compound: CN(Cc1cnc2nc(N)nc(N)c2n1)c1ccc(C(=O)N[C@@H](CCC(=O)O)C(=O)O)cc1 [methotrexate, reference compound]
- Patients who experienced an adverse drug reaction during treatment ([3]; human, in vivo): 93 % of patients
- Patients with toxic manifestations (nausea, stomatitis, elevated liver function tests, cytopenias, pulmonary toxicity) ([3]; patients receiving methotrexate): 30-60 % of patients
- Toxicity of methotrexate (in words) ([3]; use in rheumatoid arthritis): very toxic drug
- Toxicity: Dizziness [1]: 1
- Toxicity: Gastrointestinal [1]: 2
- Toxicity: Leukopenia [1]: 1
- Toxicity: Rash [1]: 0
- Metabolism to poly-gamma-glutamates [2]: metabolism of methotrexate to its poly-gamma-glutamates
- Inhibition of dihydrofolate reductase (in words) (dihydrofolate reductase): inhibit this enzyme to approximately the same magnitude
